In patent US12692253B2, “Antimicrobial compounds and methods” (Curza Global, LLC, priority 2019, dated 2026):

Experiments:
[1] = test system: E. coli S30 extract (bacterial protein synthesis); experiment: E. coli S30 extract coupled transcription-translation luciferase assay (inhibition of bacterial protein synthesis); type: biochemical; settings: class by IC50 or % inhibition @ 1 μM, read-out: S30 IC50 (μM/% inhib.)
Procedure: E. coli S30 extract: Inhibition of bacterial protein synthesis was determined using the E. coli S30 Extract System for Circular DNA (Promega catalog #L-2010) and Luciferase Assay Reagent (Promega catalog #E1500) with slight modifications to a published protocol. Fyfe, C., Sutcliffe, J. A. and Grossman, T. H. (2012) “Development and characterization of a Pseudomonas aeruginosa in vitro coupled transcription-translation assay system for evaluation of translation inhibitors” J. Microbiol. Methods 90(3), 256-261.
Compounds were serial diluted in 0.5 mL microcentrifuge tubes by mixing and transferring 50 μL from the highest concentration to 50 μL of water, mixing and transferring 50 μL of this 2-fold dilution to 50 μL of water. This mixing and transferring was repeated so that there are a total of 8 tubes with serial dilutions of compound at 10× the desired screening concentration that are ultimately diluted to 1× by the addition of S30 luciferase synthesis mixture. Serial dilutions of compounds were added (2 μL) to wells in a black round bottom 96-well plate. Water (2 μL) was used as a “no inhibitor” control in 4 wells/plate. No DNA control reaction mixture (20 μL; see below) was used as a control in 4 wells/plate for background luminescence. S30 luciferase synthesis mixture (18 μL; see below) was added to wells with compounds or water mixture and incubated at 37° C. for 1 hour. Reactions were stopped by transferring to 4° C. refrigerator for 5 minutes then 25 μL of luciferase activity mix was added. Luminescence was measured using a BioTek Synergy HTX plate reader. % Inhibition was determined relative to no inhibitor controls. • S30 luciferase synthesis mixture: • 445 μL S30 extract, circular • 712 μL S30 Premix without amino acids • 4.45 μL pBESTluc™ DNA (1 μg/μL) • 78 μL complete amino acid mixture • 267 μL water • No DNA control: • 20 μL S30 extract, circular • 32 μL S30 Premix without amino acids • 7 μL complete amino acid mixture • 21 μL water Rabbit Reticulocyte lysate

[2] = target: Rabbit Reticulocyte Lysate (eukaryotic protein synthesis); experiment: Rabbit reticulocyte lysate luciferase assay (inhibition of eukaryotic protein synthesis); type: biochemical; settings: class by IC50 or % inhibition @ 1 μM, read-out: Rabbit reticulocyte IC50 (μM/% inhib.)
Procedure: Inhibition of eukaryotic protein synthesis was determined using the Rabbit Reticulocyte Lysate System, Nuclease-Treated from Promega (catalog #L-4960) with slight modifications to the manufacturer's protocol. Compounds were serial diluted in 0.5 mL microcentrifuge tubes by mixing and transferring 50 μL from the highest concentration to 50 μL of water, mixing and transferring 50 μL of this 2-fold dilution to 50 μL of water. This mixing and transferring was repeated so that there are a total of 8 tubes with serial dilutions of compound at 10× the desired screening concentration that are ultimately diluted to 1× by the addition of rabbit reticulocyte luciferase synthesis mixture. Serial dilutions of compounds were added (2.5 μL) to wells in a black round bottom 96-well plate. Water (2.5 μL) was used as a “no inhibitor” control in 4 wells/plate. No RNA control reaction mixture (2 μL; see below) was used as a control in 4 wells/plate for background luminescence. Rabbit reticulocyte luciferase synthesis mixture (22.5 μL; see below) was added to wells with compounds or water mixture and incubated at 30° C. for 90 minutes. Luciferase assay reagent (25 μL) was added with luminescence measured using a BioTek Synergy HTX plate reader. % Inhibition was determined relative to no inhibitor controls.
Rabbit Reticulocyte Luciferase Synthesis Mixture:
• 1,000 μL rabbit reticulocyte lysate • 5.7 μL Luciferase Control RNA (1 μg/μL) • 26 μL complete amino acid mixture • 395 μL water • No RNA Control • 70 μL rabbit reticulocyte lysate • 2 μL complete amino acid mixture • 28 μL water Minimum Inhibitory Concentration (MIC)

[3] = test system: E. coli (Ec); experiment: Broth microdilution minimum inhibitory concentration (MIC), CLSI; type: cell-based; settings: growth medium supplemented with sodium bicarbonate; for MIC: Escherichia coli, read-out: E. coli + bicarb MIC
Procedure: (§1) A certified BSL-2 laboratory was used for testing. Compounds were evaluated using the broth microdilution minimum inhibitory concentration (MIC) and minimum bactericidal concentration (MBC) assays defined by Clinical and Laboratory Standards Institute (CLSI) in the M26-A guideline against S. aureus (Sa), E. coli (Ec), K. pneumoniae (Kp), A. baumannn (Ab), E. faecalis (Ef) and P. aeruginosa (Pa).
(§2) MICs were determined using the Clinical Laboratory and Standards Institute (CLSI) Broth Microdilution Method with slight modification. Clinical and Laboratory Standards Institute (2012). “Methods for dilution antimicrobial susceptibility tests for bacteria that grow aerobically; approved standard, 9th ed. M07-A9 Clinical and Laboratory Standards Institute, Wayne, PA” Serial two-fold dilutions of compounds are prepared in sterile clear round-bottom 96-well plates.
(§3) To prepare microdilution trays, two-fold dilutions of antimicrobial agent are prepared in growth medium: Cation-Adjusted Mueller-Hinton Broth (CAMHB), or CAMHB supplemented with sodium bicarbonate (6.25 or 25 mM final concentration prepared from a 1.0M stock solution) or CAMHB supplemented with heat inactivated human serum (Fisher Cat. #BP2657100) 0-50% by adding 200 µL of the highest concentration to be tested (64 μg/mL, for example) in row A, mixing and transferring 100 μL from row A to 100 μL growth medium in row B, then repeating the mixing and transferring through row H of the 96-well plate, discarding the excess […] remaining. This slight modification to the CLSI protocol enables evaluation of MICs for 3 compounds per plate in triplicate, albeit with only 8 compound dilutions (CLSI protocol enables 2 compounds in triplicate with 10 dilutions). Bacterial suspensions are added to a final concentration of 5×10^4 CFU/well by adding 5 μL of a 1:10 dilution of a 0.5 McFarland suspension (1×10^8 CFU/mL) for each bacterium evaluated. Bacterial suspensions were prepared using the growth method described by CLSI. Well-isolated colonies (3-5 from an agar plate) were selected using a sterile loop and used to inoculate a tube containing 4 mL of CAMHB. The cultures are incubated at 35±2° C. until it achieves or exceeds the turbidity of the 0.5 McFarland standard, determined by measuring A600 (usually two to six hours). When growth exceeds a 0.5 McFarland standard, the turbidity is adjusted with broth to be equivalent to a 0.5 McFarland standard.

[4] = test system: P. aeruginosa (Pa); experiment: as above; type: cell-based; settings: Pseudomonas aeruginosa, growth medium supplemented with sodium bicarbonate, read-out: Pa MIC + bicarb
Procedure: as §1, §2, §3

[5] = test system: A. baumannn (Ab); experiment: as above; type: cell-based; settings: Acinetobacter baumannii, read-out: Ab + bicarb MIC
Procedure: as §1, §2, §3

[6] = test system: E. faecalis (Ef); experiment: as above; type: cell-based; settings: Enterococcus faecalis, growth medium supplemented with sodium bicarbonate, read-out: Ef + bicarb MIC
Procedure: as §1, §2, §3

Row | SMILES | IC50 [1] [µM] | IC50 [2] [µM] | MIC [3] [mg/L] | MIC [4] [mg/L] | MIC [5] [mg/L] | MIC [6] [mg/L] | E. coli + bicarb MIC [3]
1 | Cc1cc(-n2ccc(NC(=O)N3CCN(C(=O)C(C)(C)N)CC3)nc2=O)ccc1CN1C[C@@H]2[C@@H](N)[C@@H]2C1 [Compound 2] | < 0.5 | ≥ 1 | < 8 | – | – | – | –
2 | CC(C)(N)C(=O)N1CCN(C(=O)Nc2ccn(-c3ccc(CN4C[C@@H]5[C@@H](N)[C@@H]5C4)c(Cl)c3)c(=O)n2)CC1 [Compound 7] | < 0.5 | ≥ 1 | < 8 | > 32 | – | – | –
3 | CC(C)(N)C(=O)N1CCN(C(=O)Nc2ccn(-c3ccc(CN4C[C@H](N)C5(CC5)C4)cc3)c(=O)n2)CC1 [Compound 16] | ≥ 1 | ≥ 1 | 8 to 32 | – | – | – | –
4 | C[C@H]1CN(C(=O)C(C)(C)N)CCN1C(=O)Nc1ccn(-c2ccc(CN3C[C@@H]4[C@@H](N)[C@@H]4C3)cc2)c(=O)n1 [Compound 17] | < 0.5 | ≥ 1 | < 8 | > 32 | – | – | –
5 | C[C@](N)(CF)C(=O)N1CCN(C(=O)Nc2ccn(-c3ccc(CN4C[C@@H]5[C@@H](N)[C@@H]5C4)cc3)c(=O)n2)CC1 [Compound 18] | < 0.5 | ≥ 1 | < 8 | – | – | – | –
6 | CC(C)(N)C(=O)N1CCN(C(=O)Nc2ccn(-c3ccc(CN4C[C@@H](N)C5(CC5)C4)cc3)c(=O)n2)CC1 [Compound 19] | 0.5 to 1 | ≥ 1 | < 8 | – | – | – | –
7 | CC(C)(N)C(=O)N1CCN(C(=O)Nc2ccn(-c3ccc(CN4CCC5(CC5N)C4)cc3)c(=O)n2)CC1 (centres unmarked) [Compound 21] | < 0.5 | ≥ 1 | < 8 | – | – | – | –
8 | CC(C)(N)CN1CCN(C(=O)Nc2ccn(-c3ccc(CN4C[C@@H]5[C@@H](N)[C@@H]5C4)cc3)c(=O)n2)CC1 [Compound 24] | 0.5 to 1 | ≥ 1 | < 8 | – | – | – | –
9 | C[C@@H]1CN(C(=O)Nc2ccn(-c3ccc(CN4C[C@@H]5[C@@H](N)[C@@H]5C4)cc3)c(=O)n2)CCN1C(=O)C(C)(C)N [Compound 31] | < 0.5 | ≥ 1 | < 8 | > 32 | – | – | –
10 | C[C@@H]1CN(C(=O)[C@@](C)(N)CO)CCN1C(=O)Nc1ccn(-c2ccc(CN3C[C@@H]4[C@@H](N)[C@@H]4C3)cc2)c(=O)n1 [Compound 35] | < 0.5 | ≥ 1 | – | – | > 32 | 8 to 32 | –
11 | C[C@](N)(CO)C(=O)N1CCN(C(=O)Nc2ccn(-c3ccc(CN4CCC5(CC4)CC(N)C5)cc3)c(=O)n2)CC1 [Compound 37] | < 0.5 | ≥ 1 | < 8 | 8 to 32 | – | – | –
12 | CC(C)(N)C(=O)N1CCN(C(=O)Nc2ccn(-c3ccc(CN4CCC5(CC4)CC5N)cc3)c(=O)n2)CC1 (centres unmarked) [Compound 39] | < 0.5 | ≥ 1 | < 8 | – | – | – | –
13 | CC(C)(N)CN1CCN(C(=O)Nc2ccn(-c3ccc(CN4C[C@@H]5[C@@H](N)[C@@H]5C4)cc3)c(=O)n2)CC1=O [Compound 47] | 0.5 to 1 | ≥ 1 | 8 to 32 | – | – | – | –
14 | NC[C@H]1[C@@H]2CCN(C(=O)Nc3ccn(-c4ccc(CN5C[C@@H]6[C@@H](N)[C@@H]6C5)cc4)c(=O)n3)C[C@H]12 [Compound 50] | ≥ 1 | ≥ 1 | – | – | – | – | +++ (An MIC value (μg/mL) that is less than 8 μg/mL)
15 | NC[C@H]1[C@@H]2CCN(C(=O)Nc3ccn(-c4ccc(CN5C[C@@H]6[C@@H](N)[C@@H]6C5)cc4)c(=O)n3)C[C@H]12 [Compound 51] | ≥ 1 | ≥ 1 | – | – | – | – | + (An MIC (μg/mL) value that is 32 μg/mL or greater)
16 | N[C@@H]1[C@H]2CN(Cc3ccc(-n4ccc(NC(=O)N5CCC(C6OCCC[C@@H]6N)CC5)nc4=O)cc3)C[C@@H]12 (some centres unmarked) [Compound 52] | ≥ 1 | ≥ 1 | < 8 | – | – | – | –
17 | C[C@](N)(CO)C(=O)N1CCN(C(=O)Nc2ccn(-c3ccc(CN4C[C@@H]5[C@@H](CN)[C@@H]5C4)cc3)c(=O)n2)CC1 [Compound 69] | < 0.5 | ≥ 1 | < 8 | – | – | – | –
18 | CC(C)(N)C(=O)N1CCN(C(=O)Nc2ccn(-c3ccc(CN4CC5CC5(CN)C4)cc3)c(=O)n2)CC1 (centres unmarked) [Compound 71] | < 0.5 | ≥ 1 | < 8 | – | – | – | –
19 | CC(C)(N)C(=O)N1CCN(C(=O)Nc2ccn(-c3ccc(CN4CC[C@@H]5[C@@H](CN)[C@@H]5C4)cc3)c(=O)n2)CC1 [Compound 72] | < 0.5 | ≥ 1 | < 8 | – | – | – | –
20 | CC(C)(N)C(=O)N1CCN(C(=O)Nc2ccn(-c3ccc(CN4C[C@H]5CNC[C@H]5C4)cc3)c(=O)n2)CC1 [Compound 76] | < 0.5 | ≥ 1 | < 8 | – | – | – | –
21 | CC(C)(N)C(=O)N1CCN(C(=O)Nc2ccn(-c3ccc(CN4CC[C@H]5NCC[C@H]5C4)cc3)c(=O)n2)CC1 [Compound 77] | < 0.5 | ≥ 1 | < 8 | – | – | – | –
22 | CC(C)(N)C(=O)N1CCN(C(=O)Nc2ccn(-c3ccc(CN4CCC5(CCNCC5)CC4)cc3)c(=O)n2)CC1 [Compound 82] | < 0.5 | ≥ 1 | < 8 | – | – | – | –
23 | C[C@](N)(CO)C(=O)N1CCN(C(=O)Nc2ccn(-c3ccc(CCN4C[C@@H]5[C@@H](N)[C@@H]5C4)cc3)c(=O)n2)CC1 [Compound 85] | ≥ 1 | – | > 32 | – | – | – | –
24 | CC(C)(N)C(=O)N1CCN(C(=O)Nc2ccn(-c3ccc(CCN4CCC5(CC4)CC(N)C5)cc3)c(=O)n2)CC1 [Compound 91] | < 0.5 | ≥ 1 | < 8 | < 8 | – | – | –
